Assay results as given in US20230109758A1 (priority 2018, published 2023).

Columns and labels:
[1] = test system: C. beijerinckii DSM 6423 ΔcatB; format: cell-based
C. beijerinckii DSM 6423 = format: cell-based

CS(=O)(=O)c1ccc([C@@H](O)[C@@H](CO)NC(=O)C(Cl)Cl)cc1 [thiamphenicol]
Growth on thiamphenicol-supplemented medium [1]: only the initial C. beijerinckii DSM 6423 strain is able to grow | Growth on thiamphenicol-supplemented medium (C. beijerinckii DSM 6423): able to grow
